Source: patent publication US20090215893A1, “Parakeratosis inhibitor, pore-shrinking agent,or rough skin preventing/ameliorating agent, and external composition for skin” (Shiseido Company Ltd, priority 2005, published 2009)

Columns and labels:
[1] = tested on: cheek of a panel of 20 women; experiment: Sensory irritation tests; assay type: in vivo, human; conditions: for Evaluation (sensory irritation, class of average rating): 1 mL on cheek, evaluated for ten minutes, 20 women; for sensory irritation: summary of Table 4, β-alanine at 3%
Protocol: 1 mL of a control aqueous solution and the sample aqueous solution prepared in Example 1 were applied using a cotton swab to the left or right cheek, respectively, of a panel of 20 women, the irritating sensation was evaluated every 30 seconds for ten minutes beginning immediately after application, and a final evaluation was reported. The evaluation of the irritating sensation was based on the following four steps of rating criteria, the average rating was calculated, and the average was classified by the following criteria.
3: Discontinued because of extremely strong irritation, such as stinging sensation, burning sensation, tickling sensation, itching, and the like.
2: Intolerable strong irritation, such as stinging sensation, burning sensation, tickling sensation, itching, and the like.
1: Tolerable with only slight stinging sensation, burning sensation, tickling sensation, itching, and the like.
0: Not particularly irritating.
A: average rating of less than 0.2
B: average rating of 0.2 to less than 1.0
C: average rating of 1.0 to less than 2.0
D: average rating of 2.0 or greater

[2] = tested on: back of hairless mice (HR-1), 10 mass % oleic acid applied; experiment: Inhibiting effect against rough skin induced by oleic acid application (transepidermal water loss); assay type: in vivo; design: ΔTEWL value: unit not given here; conditions: for ΔTEWL value: three days, average of four animals, rough skin worse as value increases, control 12.0; for ΔTEWL value compared with the control aqueous solution / rough skin preventing/ameliorating effect: summary of Table 3, concentrations as in Table 3
Protocol: In order to investigate the inhibiting effect of α-amino acid derivatives and salts thereof against rough skin induced by oleic acid application, the transepidermal water loss (TEWL value) before and after application was measured, the difference was compared with the control (control aqueous solution), and the effect was determined. Sample preparation and the application method were in accordance with Example 1. The TEWL was determined using the TM210 TEWA Meter (Courage+Khazaka Electronic GmBH).
100 μL of 10 mass % oleic acid (solvent: ethanol) was applied to the back of hairless mice (HR-1, four mice per group). Then a sample solution (α-amino acid derivatives, and the like) was applied 100 μL at a time. This procedure was continued for three days. The following day, the TEWL value of the back was determined and the values of the four animals were averaged. Rough skin became worse as the ΔTEWL value increased.

[3] = tested on: pores of the cheeks of healthy human males; experiment: Human pore-shrinking effect (replica assessment of cheek pores); assay type: in vivo; conditions: for Replica assessment (average of n = 5): twice a day for one month, pore size rating 1-13, after application minus before application, control 0.3; for pore-shrinking effect: summary of Table 2, concentrations as in Table 2
Protocol: An experiment was conducted whereby a sample was applied twice a day for one month to the cheeks of healthy human males in groups of 5 men each. Aqueous solutions (containing 15 mass % of ethanol) of 3 mass % of the α-amino acid derivative or a salt thereof were prepared as the evaluation sample. The pH was regulated by hydrochloric acid or sodium hydroxide so as to be 7.0 to 7.5. When sample solubility was low, the solution was prepared accordingly. The control was an aqueous 15% ethanol solution. The sample aqueous solution and control aqueous solution were applied to one half of the face at a time.
A replica was collected before and after continuous application, and changes in the shape of the pores at the same site were observed using a three-dimensional laser scanning microscope. The size of the pores was macroscopically evaluated in 13 steps of 1 through 13 (with the pores becoming larger as the numbers became larger), the difference in the ratings before and after application (after application-before application) was calculated, and the efficacy of each sample was studied using this difference as the replica assessment.

[4] = tested on: back of a hairless mouse (HR-1), 10 mass % oleic acid applied; experiment: Parakeratosis-inhibiting effect tests: oleic acid applied to hairless mouse back, macroscopic rough skin evaluation and parakeratosis value; assay type: in vivo; conditions: for Macroscopic evaluation (average of four animals): 100 μL after oleic acid, three days, rough skin score 0.0 (no redness) to 2.0 (control); for Parakeratosis value (average of four animals): tape-stripped stratum corneum, hematoxylin, range 1.0 to 3.0, higher = parakeratosis advanced, control 2.0; for parakeratosis value / parakeratosis-inhibiting effect / rough skin preventing effect, based on stratum corneum peeling and redness: summary of Table 1, concentrations as in Table 1
Protocol: Aqueous solutions (containing 30 mass % of ethanol) of primarily 3 mass % of an α-amino acid derivative or salt thereof were prepared as the evaluation sample. The pH was regulated by hydrochloric acid or sodium hydroxide so as to be 7.0 to 7.5. When sample solubility was low, the solution was prepared accordingly.
100 μL of 10 mass % oleic acid solution (solvent: ethanol) were applied to the back of a hairless mouse (HR-1; Hoshino Laboratory Animals). Then the sample solution (α-amino acid derivative, and the like) was applied 100 μL at a time. This procedure was continued for three days. […] The status of the skin was evaluated in 0.25-point intervals, with skin where the control (control aqueous solution) had been applied being 2.0 and skin where there was no redness being 0.0. At the same time, the stratum corneum at the back of the hairless mouse was peeled off with tape, the nuclei were stained by hematoxylin, and the degree of parakeratosis was observed and evaluated by a parakeratosis value within a range of 1.0 to 3.0 (in 0.25 increments).

| SMILES | Evaluation (sensory irritation, class of average rating) ([1]; sample 3 mass %) | sensory irritation [1] | ΔTEWL value ([2]; sample 3 mass %) | ΔTEWL value compared with the control aqueous solution / rough skin preventing/ameliorating effect [2] | Replica assessment (average of n = 5) ([3]; sample 3 mass %) | pore-shrinking effect [3] | Macroscopic evaluation (average of four animals) ([4]; sample 3 mass %) | Parakeratosis value (average of four animals) ([4]; sample 3 mass %) | parakeratosis value / parakeratosis-inhibiting effect [4] | rough skin preventing effect, based on stratum corneum peeling and redness [4] | Evaluation (sensory irritation, class of average rating) ([1]; sample 1.5 mass %) | ΔTEWL value ([2]; sample 1.5 mass %) | Replica assessment (average of n = 5) ([3]; sample 1.5 mass %) | Macroscopic evaluation (average of four animals) ([4]; sample 1.5 mass %) | Parakeratosis value (average of four animals) ([4]; sample 1.5 mass %) |
| --- | --- | --- | --- | --- | --- | --- | --- | --- | --- | --- | --- | --- | --- | --- | --- |
| CCNC(CO)C(=O)O (racemic) [N-ethyl-DL-serine] | A (average rating of less than 0.2) | no problems | 7.8 | significantly lower | −1.3 | seen | 1.5 | 1.5 | reduced | seen |  |  |  |  |  |
| CNC(C)C(=O)O (racemic) [N-methyl-DL-alanine] | A (average rating of less than 0.2) | no problems | 8.1 | significantly lower | −0.9 | seen | 1.4 | 1.4 | reduced | seen |  |  |  |  |  |
| CNC(CO)C(=O)O (racemic) [N-methyl-DL-serine] | A (average rating of less than 0.2) | no problems | 8.0 | significantly lower | −0.7 | seen | 1.2 | 1.2 | reduced | seen |  |  |  |  |  |
| C[C@@H](NS(=O)(=O)c1ccccc1)C(=O)O [N-benzenesulfonyl-D-alanine] |  |  |  |  |  |  |  |  |  |  | A (average rating of less than 0.2) | 7.0 | −1.2 | 1.3 | 1.4 |
| O=C(O)[C@@H](CO)NS(=O)(=O)c1ccccc1 [N-benzenesulfonyl-D-serine] | A (average rating of less than 0.2) | no problems | 6.7 | significantly lower | −1.1 | seen | 1.3 | 1.2 | reduced | seen |  |  |  |  |  |
| C[C@H](NS(=O)(=O)c1ccccc1)C(=O)O [N-benzenesulfonyl-L-alanine] |  | no problems |  | significantly lower |  | seen |  |  | reduced | seen | A (average rating of less than 0.2) | 7.2 | −0.9 | 1.2 | 1.3 |
| O=C(O)[C@H](CO)NS(=O)(=O)c1ccccc1 [N-benzenesulfonyl-L-serine] | A (average rating of less than 0.2) | no problems | 6.8 | significantly lower | −1.2 | seen | 1.2 | 1.2 | reduced | seen |  |  |  |  |  |
| O=C(O)CNS(=O)(=O)c1ccccc1 [N-benzenesulfonyl-glycine] | A (average rating of less than 0.2) | no problems | 6.9 | significantly lower | −1.3 | seen | 1.2 | 1.2 | reduced | seen |  |  |  |  |  |
| C[C@@H](NC(=O)OCc1ccccc1)C(=O)O [N-carbobenzoyloxy-D-alanine] | A (average rating of less than 0.2) | no problems | 7.1 | significantly lower | −0.8 | seen | 1.2 | 1.1 | reduced | seen |  |  |  |  |  |
| O=C(N[C@H](CO)C(=O)O)OCc1ccccc1 [N-carbobenzoyloxy-D-serine] | A (average rating of less than 0.2) | no problems | 6.8 | significantly lower | −1.3 | seen | 1.2 | 1.2 | reduced | seen |  |  |  |  |  |
